ChEMBL document CHEMBL2380247, “Synthesis and biological evaluation of novel aliphatic amido-quaternary ammonium salts for anticancer chemotherapy: part II” (2013)
Active and inactive are the calls of the source. No cut-off for these calls is given here.

Key:
NUGC-3 [1] = experiment: Antiproliferative activity against human NUGC3 cells at 0.3 uM by SRB assay; format: functional
NUGC-3 [2] = experiment: Antiproliferative activity against human NUGC3 cells at 0.1 uM by SRB assay; format: functional
NUGC-3 [3] = experiment: Antiproliferative activity against human NUGC3 cells at 1 uM by SRB assay; format: functional
NUGC-3 [4] = experiment: Antiproliferative activity against human NUGC3 cells at 10 uM by SRB assay; format: functional
NUGC-3 [5] = experiment: Antiproliferative activity against human NUGC3 cells at 3 uM by SRB assay; format: functional
MDA-MB-231 [6] = experiment: Antiproliferative activity against human MDA-MB-231 cells at 0.1 uM by SRB assay; format: functional
MDA-MB-231 [7] = experiment: Antiproliferative activity against human MDA-MB-231 cells at 0.3 uM by SRB assay; format: functional
MDA-MB-231 [8] = experiment: Antiproliferative activity against human MDA-MB-231 cells at 1 uM by SRB assay; format: functional
MDA-MB-231 [9] = experiment: Antiproliferative activity against human MDA-MB-231 cells at 10 uM by SRB assay; format: functional
MDA-MB-231 [10] = experiment: Antiproliferative activity against human MDA-MB-231 cells at 3 uM by SRB assay; format: functional
ACHN [11] = experiment: Antiproliferative activity against human ACHN cells at 0.1 uM by SRB assay; format: functional
ACHN [12] = experiment: Antiproliferative activity against human ACHN cells at 1 uM by SRB assay; format: functional
ACHN [13] = experiment: Antiproliferative activity against human ACHN cells at 0.3 uM by SRB assay; format: functional
ACHN [14] = experiment: Antiproliferative activity against human ACHN cells at 3 uM by SRB assay; format: functional
ACHN [15] = experiment: Antiproliferative activity against human ACHN cells at 10 uM by SRB assay; format: functional
NCI-H23 [16] = experiment: Antiproliferative activity against human NCI-H23 cells at 0.3 uM by SRB assay; format: functional
NCI-H23 [17] = experiment: Antiproliferative activity against human NCI-H23 cells at 0.1 uM by SRB assay; format: functional
NCI-H23 [18] = experiment: Antiproliferative activity against human NCI-H23 cells at 3 uM by SRB assay; format: functional
NCI-H23 [19] = experiment: Antiproliferative activity against human NCI-H23 cells at 1 uM by SRB assay; format: functional
NCI-H23 [20] = experiment: Antiproliferative activity against human NCI-H23 cells at 10 uM by SRB assay; format: functional
PC-3 [21] = experiment: Antiproliferative activity against human PC3 cells at 0.1 uM by SRB assay; format: functional
PC-3 [22] = experiment: Antiproliferative activity against human PC3 cells at 1 uM by SRB assay; format: functional
PC-3 [23] = experiment: Antiproliferative activity against human PC3 cells at 0.3 uM by SRB assay; format: functional
PC-3 [24] = experiment: Antiproliferative activity against human PC3 cells at 3 uM by SRB assay; format: functional
HCT-15 [25] = experiment: Antiproliferative activity against human HCT15 cells at 0.1 uM by SRB assay; format: functional
PC-3 [26] = experiment: Antiproliferative activity against human PC3 cells at 10 uM by SRB assay; format: functional
HCT-15 [27] = experiment: Antiproliferative activity against human HCT15 cells at 0.3 uM by SRB assay; format: functional
HCT-15 [28] = experiment: Antiproliferative activity against human HCT15 cells at 3 uM by SRB assay; format: functional
HCT-15 [29] = experiment: Antiproliferative activity against human HCT15 cells at 1 uM by SRB assay; format: functional
HCT-15 [30] = experiment: Antiproliferative activity against human HCT15 cells at 10 uM by SRB assay; format: functional
[31] = target: Rho-related GTP-binding protein RhoB (Homo sapiens) (UniProt P62745); experiment: Transactivation of RhoB in human HeLa cells by luciferase reporter assay; format: cell-based
NCI-H23 [32] = experiment: Antiproliferative activity against human NCI-H23 cells by SRB assay; format: functional
NUGC-3 [33] = experiment: Antiproliferative activity against human NUGC3 cells by SRB assay; format: functional
HCT-15 [34] = experiment: Antiproliferative activity against human HCT15 cells by SRB assay; format: functional
ACHN [35] = experiment: Antiproliferative activity against human ACHN cells by SRB assay; format: functional
MDA-MB-231 [36] = experiment: Antiproliferative activity against human MDA-MB-231 cells by SRB assay; format: functional
PC-3 [37] = experiment: Antiproliferative activity against human PC3 cells by SRB assay; format: functional

Rho-related GTP-binding protein RhoB (Homo sapiens), sequence (P62745 whole entry): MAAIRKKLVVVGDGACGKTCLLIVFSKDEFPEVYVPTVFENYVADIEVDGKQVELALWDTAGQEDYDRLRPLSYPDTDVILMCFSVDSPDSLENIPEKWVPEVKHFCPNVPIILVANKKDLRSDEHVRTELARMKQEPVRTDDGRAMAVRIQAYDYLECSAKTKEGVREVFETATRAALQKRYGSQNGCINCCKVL

Structure (SMILES)	growth, % of control at 0.3 µM (NUGC-3 [1]) [%]	growth, % of control at 0.1 µM (NUGC-3 [2]) [%]	growth, % of control at 1 µM (NUGC-3 [3]) [%]	growth, % of control at 10 µM (NUGC-3 [4]) [%]	growth, % of control at 3 µM (NUGC-3 [5]) [%]	growth, % of control at 0.1 µM (MDA-MB-231 [6]) [%]	growth, % of control at 0.3 µM (MDA-MB-231 [7]) [%]	growth, % of control at 1 µM (MDA-MB-231 [8]) [%]	growth, % of control at 10 µM (MDA-MB-231 [9]) [%]	growth, % of control at 3 µM (MDA-MB-231 [10]) [%]	growth, % of control at 0.1 µM (ACHN [11]) [%]	growth, % of control at 1 µM (ACHN [12]) [%]	growth, % of control at 0.3 µM (ACHN [13]) [%]	growth, % of control at 3 µM (ACHN [14]) [%]	growth, % of control at 10 µM (ACHN [15]) [%]	growth, % of control at 0.3 µM (NCI-H23 [16]) [%]	growth, % of control at 0.1 µM (NCI-H23 [17]) [%]	growth, % of control at 3 µM (NCI-H23 [18]) [%]	growth, % of control at 1 µM (NCI-H23 [19]) [%]	growth, % of control at 10 µM (NCI-H23 [20]) [%]	also measured
CCCCCCCCCCCCCCCC(=O)N(C)CC[N+](C)(C)C	57.7	77.8	26.8	-19.4	-0.9	106	100	81.6	-1.2	41.4	87.9	42	85.9	31.9	-19.1	102	101	58	83.7	0	growth, % of control at 0.1 µM (PC-3 [21]): 96%; growth, % of control at 1 µM (PC-3 [22]): 37.3%; growth, % of control at 0.3 µM (PC-3 [23]): 87.9%; growth, % of control at 3 µM (PC-3 [24]): 3.5%; growth, % of control at 0.1 µM (HCT-15 [25]): 99.9%; growth, % of control at 10 µM (PC-3 [26]): -15.8%; growth, % of control at 0.3 µM (HCT-15 [27]): 102%; growth, % of control at 3 µM (HCT-15 [28]): 45.2%; growth, % of control at 1 µM (HCT-15 [29]): 79.6%; growth, % of control at 10 µM (HCT-15 [30]): 15.8%; Activity [31]: Active; GI50 (NCI-H23 [32]): 1540 nM; GI50 (NUGC-3 [33]): 170 nM; GI50 (HCT-15 [34]): 1310 nM; GI50 (ACHN [35]): 450 nM; GI50 (MDA-MB-231 [36]): 1140 nM; GI50 (PC-3 [37]): 370 nM
CCCCCCCCCCCCCCCC(=O)NCC(C)(C)C[N+](C)(C)CC	90.9	91.8	38.1	1.32	13.8	94.4	99.8	82.7	18.4	46.6	93.7	87.4	92.4	58.9	34.5	101	108	43.1	85.6	3.85	growth, % of control at 0.1 µM (PC-3 [21]): 103%; growth, % of control at 1 µM (PC-3 [22]): 38.5%; growth, % of control at 0.3 µM (PC-3 [23]): 94.2%; growth, % of control at 3 µM (PC-3 [24]): 4.52%; growth, % of control at 0.1 µM (HCT-15 [25]): 107%; growth, % of control at 10 µM (PC-3 [26]): -11.9%; growth, % of control at 0.3 µM (HCT-15 [27]): 103%; growth, % of control at 3 µM (HCT-15 [28]): 85.2%; growth, % of control at 1 µM (HCT-15 [29]): 99.5%; growth, % of control at 10 µM (HCT-15 [30]): 57%; Activity [31]: Active; GI50 (NCI-H23 [32]): 1340 nM; GI50 (NUGC-3 [33]): 430 nM; GI50 (HCT-15 [34]): > 10000 nM; GI50 (ACHN [35]): 2600 nM; GI50 (MDA-MB-231 [36]): 1540 nM; GI50 (PC-3 [37]): 440 nM
CCCCCCCCCCCCCCCC(=O)N(C)CCC[N+](C)(C)C	68	97	4.68	-38.4	-31.9	97.7	96.1	76.6	21.7	46.6	91.6	58.9	86.8	39.5	1.49	99.2	98.7	33.7	76.5	-14.1	growth, % of control at 0.1 µM (PC-3 [21]): 106%; growth, % of control at 1 µM (PC-3 [22]): 47.2%; growth, % of control at 0.3 µM (PC-3 [23]): 108%; growth, % of control at 3 µM (PC-3 [24]): 0.07%; growth, % of control at 0.1 µM (HCT-15 [25]): 98.7%; growth, % of control at 10 µM (PC-3 [26]): -16.5%; growth, % of control at 0.3 µM (HCT-15 [27]): 99.1%; growth, % of control at 3 µM (HCT-15 [28]): 54%; growth, % of control at 1 µM (HCT-15 [29]): 82.7%; growth, % of control at 10 µM (HCT-15 [30]): 29.6%; Activity [31]: Active; GI50 (NCI-H23 [32]): 960 nM; GI50 (NUGC-3 [33]): 190 nM; GI50 (HCT-15 [34]): 1980 nM; GI50 (ACHN [35]): 760 nM; GI50 (MDA-MB-231 [36]): 1420 nM; GI50 (PC-3 [37]): 490 nM
